In brackets after ≈: the same amount, converted by molar mass.
Assays:
Staphylococcus aureus [1] = experiment: Antibacterial activity against Staphylococcus aureus SG 511; assay type: functional
Streptococcus pyogenes = experiment: Antibacterial activity against Streptococcus pyogenes 308A; assay type: functional
Staphylococcus aureus [2] = experiment: Antibacterial activity against Staphylococcus aureus 285; assay type: functional
Pseudomonas aeruginosa [3] = experiment: Antibacterial activity against Pseudomonas aeruginosa 1771M; assay type: functional
Mus musculus [4] = experiment: In vivo therapeutic efficacy in systemic infections caused by Pseudomonas aeruginosa 1771M in mice, at a single subcutaneous administration; assay type: functional; conditions: sc, read-out: PD50
Enterobacter cloacae = experiment: Antibacterial activity against Enterobacter cloacae 1321E; assay type: functional
[5] = Stability to porcine renal DHP-I; assay type: ADME, Sus scrofa; conditions: pig
Mus musculus [6] = experiment: In vivo therapeutic efficacy in systemic infections caused by Streptococcus pyogenes 77A in mice, at a single subcutaneous administration; assay type: functional; conditions: sc, read-out: PD50
Escherichia coli [7] = experiment: Antibacterial activity against Escherichia coli 1507E; assay type: functional
Pseudomonas aeruginosa [8] = experiment: Antibacterial activity against Pseudomonas aeruginosa 9027; assay type: functional
Mus musculus [9] = experiment: In vivo therapeutic efficacy in systemic infections caused by Escherichia coli 078 in mice, at a single subcutaneous administration; assay type: functional; conditions: sc, read-out: PD50
Salmonella typhimurium = experiment: Antibacterial activity against Salmonella Typhimurium; assay type: functional, Salmonella enterica subsp. enterica serovar Typhimurium; conditions: Salmonella enterica
Pseudomonas aeruginosa [10] = experiment: Antibacterial activity against Pseudomonas aeruginosa 1592E; assay type: functional
Mus musculus [11] = experiment: In vivo therapeutic efficacy in systemic infections caused by Staphylococcus aureus Y-80-1953 in mice, at a single subcutaneous administration; assay type: functional; conditions: sc, read-out: PD50
Escherichia coli [12] = experiment: Antibacterial activity against Escherichia coli 078; assay type: functional
Klebsiella aerogenes = experiment: Antibacterial activity against Klebsiella aerogenes 1522E; assay type: functional
Staphylococcus aureus [13] = experiment: Antibacterial activity against Staphylococcus aureus 503; assay type: functional

Row | SMILES | MIC (Staphylococcus aureus [1]) [µg/mL] | MIC (Streptococcus pyogenes) [µg/mL] | MIC (Staphylococcus aureus [2]) [µg/mL] | MIC (Pseudomonas aeruginosa [3]) [µg/mL] | ED50 (Mus musculus [4]) [mg/kg] | MIC (Enterobacter cloacae) [µg/mL] | Relative t1/2 [5] | ED50 (Mus musculus [6]) [mg/kg] | MIC (Escherichia coli [7]) [µg/mL] | MIC (Pseudomonas aeruginosa [8]) [µg/mL] | ED50 (Mus musculus [9]) [mg/kg] | MIC (Salmonella typhimurium) [µg/mL] | MIC (Pseudomonas aeruginosa [10]) [µg/mL] | ED50 (Mus musculus [11]) [mg/kg] | MIC (Escherichia coli [12]) [µg/mL] | MIC (Klebsiella aerogenes) [µg/mL] | MIC (Staphylococcus aureus [13]) [µg/mL]
1 | C[C@@H](O)[C@H]1C(=O)N2C(C(=O)O)=C(S[C@@H]3CN[C@H](/C=C/c4ccns4)C3)[C@H](C)[C@H]12 | 0.013 (≈ 0.0308 µM) | 0.004 (≈ 0.00949 µM) | 0.025 (≈ 0.0593 µM) | 0.195 (≈ 0.463 µM) | 6.17 | 0.049 (≈ 0.116 µM) | 3.36 | 0.32 | 0.025 (≈ 0.0593 µM) | 0.391 (≈ 0.928 µM) | 0.32 | 0.049 (≈ 0.116 µM) | 0.391 (≈ 0.928 µM) | 1.27 | 0.025 (≈ 0.0593 µM) | 0.049 (≈ 0.116 µM) | 0.013 (≈ 0.0308 µM)
2 | C[C@@H](O)[C@H]1C(=O)N2C(C(=O)O)=C(S[C@@H]3CN[C@H](/C=C/c4ccsn4)C3)[C@H](C)[C@H]12 | 0.025 (≈ 0.0593 µM) | 0.007 (≈ 0.0166 µM) | 0.025 (≈ 0.0593 µM) | 0.391 (≈ 0.928 µM) | – | 0.025 (≈ 0.0593 µM) | 1.42 | – | 0.049 (≈ 0.116 µM) | 1.56 (≈ 3.71 µM) | – | 0.049 (≈ 0.116 µM) | 1.56 (≈ 3.71 µM) | – | 0.049 (≈ 0.116 µM) | 0.098 (≈ 0.232 µM) | 0.013 (≈ 0.0308 µM)
3 | C[C@@H](O)[C@H]1C(=O)N2C(C(=O)O)=C(S[C@@H]3CN[C@H](C(=O)N(C)C)C3)[C@H](C)[C@H]12 [MEROPENEM] | 0.195 (≈ 0.509 µM) | 0.013 (≈ 0.0339 µM) | 0.195 (≈ 0.509 µM) | 0.049 (≈ 0.128 µM) | 5.43 | 0.025 (≈ 0.0652 µM) | 1 | 4.72 | 0.025 (≈ 0.0652 µM) | 0.195 (≈ 0.509 µM) | 1.11 | 0.049 (≈ 0.128 µM) | 0.195 (≈ 0.509 µM) | 4.49 | 0.025 (≈ 0.0652 µM) | 0.049 (≈ 0.128 µM) | 0.098 (≈ 0.256 µM)
4 | C[C@@H](O)[C@H]1C(=O)N2C(C(=O)O)=C(SCCNC=N)C[C@H]12.O [IMIPENEM] | 0.025 | 0.007 | 0.025 | 0.195 | – | 0.195 | 0.19 | – | 0.195 | 0.781 | – | 0.781 | 1.56 | – | 0.098 | 0.391 | 0.013
5 | C[C@@H](O)[C@H]1C(=O)N2C(C(=O)O)=C(S[C@@H]3CN[C@H](/C=C/c4ccno4)C3)[C@H](C)[C@H]12 | 0.025 (≈ 0.0617 µM) | 0.004 (≈ 0.00986 µM) | 0.049 (≈ 0.121 µM) | 0.098 (≈ 0.242 µM) | – | 0.025 (≈ 0.0617 µM) | 1.95 | – | 0.025 (≈ 0.0617 µM) | 0.195 (≈ 0.481 µM) | – | 0.049 (≈ 0.121 µM) | 0.195 (≈ 0.481 µM) | – | 0.025 (≈ 0.0617 µM) | 0.049 (≈ 0.121 µM) | 0.013 (≈ 0.0321 µM)

From ChEMBL document CHEMBL1136553, “Synthesis and biological evaluation of novel 1 beta-methylcarbapenems with isothiazoloethenyl side chains” (Bioorg Med Chem Lett, 2003)
